Bridge positions count the residues as written; N and C are the ends. Square brackets hold non-standard residues; d marks the D form. Peptide text beside a SMILES is read from it. * marks the point of attachment. ξ: configuration not given here. dPhe(4-NHCONH2) = NC(=O)Nc1ccc(C[C@@H](N)C(=O)O)cc1; Phe(4-Cl) = N[C@@H](Cc1ccc(Cl)cc1)C(=O)O; ξDihydroorotoyl = O=C1CC(C(=O)*)NC(=O)N1; 2Nal = N[C@@H](Cc1ccc2ccccc2c1)C(=O)O; ξPhe(4-NH2) = Nc1ccc(CC(N)C(=O)O)cc1
Key:
human sst2A receptor = target: T1, human sst2A receptor (Homo sapiens, UniProt P30874); assay: Immunofluorescence-based sst2 internalization assay in HEK-sst2 cells; format: cell-based; details: for sst2-internalization tested in vitro in HEK-sst2 cells (function): n ≧ 2
T1 construct: expressed in transfected cells; host or cells: HEK293 (HEK-sst2)
Experimental: Immunofluorescence-based sst2 Internalization Assay. Immunofluorescence microscopy-based internalization assay for sst2 was performed with HEK-sst2 using the sst2-specific antibody R2-88 as described elsewhere herein. HEK-sst2 cells were treated either with vehicle alone, the sst2 agonist [Tyr^3]-octreotide at a concentration of 100 nM, [Tyr^3]-octreotide at a concentration of 100 nM in the presence of an excess of the SRIF analogues to be tested (100 times the concentration of [Tyr^3]-octreotide), or with the SRIF analogues to be tested alone at a concentration of 10 μM, and then processed for immunofluorescence microscopy as described previously.

hSSTR2 = target: T2, hSSTR2 (Homo sapiens, UniProt P30874); assay: Receptor autoradiography, displacement of 125I-[Leu8,D-Trp22,Tyr25]-SRIF-28 from membrane pellet sections; format: binding
T2 construct: expressed in transfected cells; host or cells: CHO-K1 or CCL39 cells
Experimental: Generally, recombinant cells expressing the receptor are washed and homogenized to prepare a crude protein homogenate in a suitable buffer. In a typical assay, an amount of protein from the cell homogenate is placed into a small volume of an appropriate assay buffer at an appropriate pH. Candidate substances, such as potential SRIF agonists and antagonists, are added to the admixture in convenient concentrations, and the interaction between the candidate substance and the receptor polypeptide is monitored.
In vitro Bioassay: The effects of the various somatostatin analogs were tested in vitro for their ability to bind to isolated cloned receptors expressed on CHO-K1 cells and CCL39 cells. The molecular cloning of the genes encoding multiple somatostatin receptor subtypes permitted the individual expression of these receptors in mammalian cells and the characterization of their respective pharmacological profiles.
CHO-K1 cells were grown in Ham's F-12 medium, and CCL39 cells were grown in Dulbecco's modified Eagle's medium/Ham's F-12(1:1) mix, supplemented with 10% fetal bovine serum, 100 U/ml penicillin and 100 μg/ml streptomycin, in humidified air containing 5% CO2 at 37° C. Cells were washed twice with and scraped into ice-cold 0.05 M Tris-HCl (pH 7.4), collected by centrifugation, and homogenized using a rotor/stator/system in the same buffer. After centrifugation at 120 g for 5 min at 4° C., the supernatant was collected and centrifuged again at 48,000 g for 30 min at 4° C. The resulting pellet was resuspended in ice-cold Tris buffer, transferred into a microfuge tube, and centrifuged at 20,000 g for 15 min at 4° C. After withdrawal of the supernatant, the membrane pellet was stored at −80° C.
Receptor autoradiography was performed on 20 μm thick cryostat sections of the membrane pellets, mounted on microscope slides, and then stored at −20° C. […] Increasing concentrations of the unlabeled peptide were used ranging from 0.1-1000 nM. […] IC50 values were calculated after quantification of the data using a computer-assisted image processing system as known in this art.
The numbers in parentheses indicate the number of times the particular binding test was carried out.
Receptor autoradiography. Cell membrane pellets were prepared as previously described, and stored at −80° C. Receptor autoradiography was performed on 20-μm thick cryostat (Microm HM 500, Walldorf, Germany) sections of the membrane pellets, mounted on microscope slides, and then stored at −20° C. […] After a brief dip in distilled water to remove excess salts, the sections were dried quickly and exposed for 1 week to Kodak BioMax MR film. IC50 values were calculated after quantification of the data using a computer-assisted image processing system as described previously. […] (Reubi, J. C. “In vitro identification of vasoactive intestinal peptide receptors in human tumors: Implications for tumor imaging.” J. Nucl. Med. 1995, 36, 1846-1853).
To investigate their ssts binding properties, the peptides were tested for their ability to bind to cryostat sections from membrane pellets of cells expressing the five human ssts (Table 3).

sst2 = sst2 (Homo sapiens, UniProt P30874); assay: Calcium release assay in HEK-sst2 cells (Fluo-4NW); format: cell-based; design: expressed in transfected cells; host or cells: HEK293 (HEK-sst2); details: n ≧ 2
Experimental: Calcium release assay. Intracellular calcium release was measured in HEK-sst2 using the Fluo-4NW Calcium Assay kit as described previously (Magrys, et al. “The role of anti-alpha-enolase autoantibodies in pathogenicity of autoimmune-mediated retinopathy.” J. Clin. Immunol. 2007, 27, 181-192; Michel et al. “The Nef protein of human immunodeficiency virus is a broad-spectrum modulator of chemokine receptor cell surface levels that acts independently of classical motifs for receptor endocytosis and Galphai signaling.” Mol. Biol. Cell. 2006, 17, 3578-3590). In brief, HEK-sst2 cells were seeded (25,000 cells per well) in poly-D-lysine (20 μg/mL) coated 96 well plates and cultured for 1 day at 37° C. and 5% CO2 in culture medium. At the day of the experiment, the cells were washed with assay buffer (1×HBSS, 20 mM HEPES) containing 2.5 mM probenecid, and then loaded with 100 μL/well Fluo-4NW dye in assay buffer containing 2.5 mM probenecid for 30 min at 37° C. and 5% CO2 and then for further 30 min at room temperature. To measure the intracellular calcium mobilization after stimulation with the SRIF analogues to be tested, the dye-loaded cells were transferred to a SpectraMax M2^e (Molecular Devices, Sunnyvale, Calif.). Intracellular calcium mobilization was recorded in a kinetic for 60 sec at room temperature monitoring fluorescence emission at 520 nm (with λex=485 nm) in the presence of the analogues at the concentrations indicated. Maximum fluorescence (Fmax) was measured after the addition of 25 μM ionomycin. Baseline (control) measurements were taken for dye-loaded, untreated cells. Data are shown as percentage of Fmax (% Fmax) as reported previously. (Magrys, et al. J. Clin. Immunol. 2007, 27, 181-192; Michel et al. Mol. Biol. Cell. 2006, 17, 3578-3590). All experiments were repeated at least three times in triplicate.

Sequence of sst2 (P30874 whole entry): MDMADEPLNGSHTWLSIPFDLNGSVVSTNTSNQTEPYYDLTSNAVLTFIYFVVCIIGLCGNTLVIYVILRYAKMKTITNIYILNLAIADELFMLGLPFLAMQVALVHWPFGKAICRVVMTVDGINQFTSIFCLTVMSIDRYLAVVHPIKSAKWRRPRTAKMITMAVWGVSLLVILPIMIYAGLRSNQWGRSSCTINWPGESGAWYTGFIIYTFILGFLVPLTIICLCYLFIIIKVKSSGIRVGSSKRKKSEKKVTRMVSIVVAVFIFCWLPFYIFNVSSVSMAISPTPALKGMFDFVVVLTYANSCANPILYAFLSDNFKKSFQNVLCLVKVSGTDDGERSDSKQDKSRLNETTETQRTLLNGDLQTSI
T1 sequence (P30874 whole entry): as above
T2 sequence (P30874 whole entry): as above

sst2-internalization tested in vitro in HEK-sst2 cells (function) (human sst2A receptor)	Calcium release tested in vitro in HEK-sst2 cells (function) (sst2)	sst2 internalization, given alone (human sst2A receptor; FIG. 2, antagonists at 10 μM)	Compound	loss of binding affinity for sst2 as compared to 7 (hSSTR2) [fold]
Antagonist	Antagonist	–	C[C@@H](O)[C@@H]1NC(=O)[C@H](CCCCN)NC(=O)[C@@H](Cc2c[nH]c3ccccc23)NC(=O)[C@H](Cc2ccc(NC(N)=O)cc2)NC(=O)[C@H](NC(=O)[C@@H](N)Cc2ccc(Cl)cc2)CSSC[C@@H](C(=O)N[C@@H](Cc2ccc3ccccc3c2)C(N)=O)NC1=O [compound 12, H2N-Cpa-c[DCys-Aph(Cbm)-DTrp-Lys-Thr-Cys]-2Nal-NH2]	–
Antagonist	Antagonist	–	C[C@@H](O)[C@@H]1NC(=O)[C@H](CCCCN)NC(=O)[C@@H](Cc2ccc(NC(N)=O)cc2)NC(=O)C(Cc2ccc(NC(=O)C3CC(=O)NC(=O)N3)cc2)NC(=O)[C@H](NC(=O)[C@@H](N)Cc2ccc(Cl)cc2)CSSC[C@@H](C(=O)N[C@@H](Cc2ccc3ccccc3c2)C(N)=O)NC1=O (stereo partly drawn) [compound 29, H2N-Cpa-c[DCys-Aph(Hor)-DAph(Cbm)-Lys-Thr-Cys]-2Nal-NH2] (H-[Phe(4-Cl)][dC][ξPhe(4-NH2)](ξDihydroorotoyl)[dPhe(4-NHCONH2)]KTC[2Nal]-NH2; disulfide 2-7)	–
–	agonistic effect	can induce sst2 internalization	[Tyr^3]-octreotide [reference compound]	–

Compound	sst2-internalization tested in vitro in HEK-sst2 cells (function) (human sst2A receptor)	Calcium release tested in vitro in HEK-sst2 cells (function) (sst2)	sst2 internalization, given alone (human sst2A receptor; FIG. 2, antagonists at 10 μM)	loss of binding affinity for sst2 as compared to 7 (hSSTR2) [fold]
C[C@@H](O)[C@@H]1NC(=O)[C@H](CCCCN)NC(=O)[C@@H](Cc2c[nH]c3ccccc23)NC(=O)[C@H](N(C)C(=O)c2ccccc2)NC(=O)[C@H](NC(=O)[C@@H](N)Cc2ccc(Cl)cc2)CSSC[C@@H](C(=O)N[C@@H](Cc2ccc3ccccc3c2)C(N)=O)NC1=O [compound 9, H2N-Cpa-c[DCys-L-Agl(NMe.benzoyl)-DTrp-Lys-Thr-Cys]-2Nal-NH2]	Antagonist	–	–	3

— patent US8691761B2, “Somatostatin receptor 2 antagonists” (priority 2006, dated 2014)
